The data set can be described thus: method code SF-CR, from PMID: 5159517.

SMILES strings stand for the structures.

Broadly, the logP is a log measure of how a compound divides between an organic and an aqueous phase. A lower logP goes with lower lipophilicity.

`COc1cnc(NS(=O)(=O)c2ccc(N)cc2)nc1` displayed a lipophilicity (logP) of 0.41.
